{"source": "patent US20260217687A1", "about": "(NeoPhore Limited, priority 2023, published 2026)"}
{"molecular_target": "T1, recombinant N-terminal MLH1 (residues 15-340) (Homo sapiens, UniProt P40692)", "T1 construct": "recombinant N-terminal MLH1 (residues 15-340)", "T1 sequence (P40692 15-340)": "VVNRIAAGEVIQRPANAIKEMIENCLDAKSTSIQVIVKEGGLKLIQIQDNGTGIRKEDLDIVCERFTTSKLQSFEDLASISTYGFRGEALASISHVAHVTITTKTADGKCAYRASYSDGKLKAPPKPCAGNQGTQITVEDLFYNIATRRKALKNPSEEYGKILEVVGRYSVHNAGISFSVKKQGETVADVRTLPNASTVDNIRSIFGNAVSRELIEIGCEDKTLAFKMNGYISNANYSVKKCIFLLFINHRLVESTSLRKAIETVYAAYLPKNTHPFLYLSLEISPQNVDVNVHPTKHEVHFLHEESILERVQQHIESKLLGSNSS", "assay": "Fluorescence Polarisation Assay for MLH1", "format": "binding", "settings": "100 nM N-terminal MLH1, 5 nM probe compound", "method": "Fluorescence Polarisation Assay for MLH1\nTest compounds, as 10 mM DMSO stocks, were dispensed into a 384-well Low Flange Black Flat Bottom Polystyrene Non-binding Surface plate (Corning®, item number 3575) using a Labcyte Echo acoustic liquid handler. […] 20 μL of a 2× solution (200 nM) of recombinant N-terminal MLH1 (residues 15-340) in assay buffer (25 mM HEPES, pH 7.5, 250 mM NaCl, 10 mM MgCl2, 0.01% Triton X-100, 5 mM Dithiothreitol) was added to all wells in columns 1-23 and 20 μL assay buffer was added to all wells in column 24 using an E1-ClipTip pipette (ThermoFisher). Plates were centrifuged for 1 minute at 250 xg and were incubated at room temperature for 30 minutes prior to the addition of 20 μL of 2×(10 nM) of 5-((5-(4-((2-(2-(Benzyloxy)-4,6-dihydroxybenzoyl)isoindolin-5-yl)methyl)piperazin-1-yl)pentyl)carbamoyl)-2-(6-(dimethylamino)-3-(dimethyliminio)-3H-xanthen-9-yl)benzoate (referred to hereinafter as “probe compound”) in assay buffer (prepared from a 1 mM DMSO stock) with an E1-ClipTip pipette (ThermoFisher). The final concentration of N-terminal MLH1 was 100 nM and the final concentration of the probe compound was 5 nM. Compound plates were centrifuged for 1 minute at 250 xg for 1 minute and immediately read on a PheraStar FSX (fitted with 384-well aperture spoon and 590 675 675 FP optic module). The gain and focus were adjusted before each plate was read so that the polarisation of a no enzyme control (column 24) was equal to 35 mP. Data were normalised against the no inhibitor controls (column 23) and no enzyme controls (column 24).", "units": {"IC50": "nM"}}
{"smiles": "CN(C)Cc1ccc2c(n1)CN(C(=O)c1c(O)cc(C(F)F)cc1OCc1ccccc1)C2", "note": "[Example 4.52, (2-(Benzyloxy)-4-(difluoromethyl)-6-hydroxyphenyl)(2-((dimethylamino)methyl)-5,7-dihydro-6H-pyrrolo[3,4-b]pyridin-6-yl)methanone]", "IC50": "100 to 1000"}
{"smiles": "COc1cc2c(c(N[C@@H]3CCOC3)c1)CN(C(=O)c1c(O)cc(C#N)cc1OCc1ccccc1)C2", "note": "[Example 10.13, (R)-3-(Benzyloxy)-5-hydroxy-4-(6-methoxy-4-((tetrahydrofuran-3-yl)amino)isoindoline-2-carbonyl)benzonitrile]", "IC50": "100 to 1000"}
{"smiles": "CN1CC(Oc2ccc3c(c2)CN(C(=O)c2c(O)cc(C#N)cc2OCc2ccccc2)C3)C1", "note": "[Example 10.32, 3-(Benzyloxy)-5-hydroxy-4-(5-((1-methylazetidin-3-yl)oxy)isoindoline-2-carbonyl)benzonitrile]", "IC50": "100 to 1000"}
{"smiles": "O=C(c1c(O)cc(C(F)F)cc1OCc1ccccc1)N1Cc2ccc(Cn3ccnc3)cc2C1", "note": "[Example 4.50, (5-((1H-Imidazol-1-yl)methyl)isoindolin-2-yl)(2-(benzyloxy)-4-(difluoromethyl)-6-hydroxyphenyl)methanone]", "IC50": "100 to 1000"}
{"smiles": "N#Cc1cc(O)c(C(=O)N2Cc3cnc(N)cc3C2)c(OCc2ccccc2)c1", "note": "[Example 27.10, 4-(6-Amino-2,3-dihydro-1H-pyrrolo[3,4-c]pyridine-2-carbonyl)-3-(benzyloxy)-5-hydroxybenzonitrile hydroformate]", "IC50": "1000 to 10000"}
{"smiles": "CN1CC(Oc2ccc3c(c2)CN(C(=O)c2c(O)cc(C(F)F)cc2OCc2ccccc2)C3)C1", "note": "[Example 4.57, (2-(Benzyloxy)-4-(difluoromethyl)-6-hydroxyphenyl)(5-((1-methylazetidin-3-yl)oxy)isoindolin-2-yl)methanone]", "IC50": "< 100"}
{"smiles": "O=C(c1c(O)cc(C(F)F)cc1OCc1ccccc1)N1CCc2cc(Cn3ccnc3)cc(N[C@H]3CCOC3)c2C1", "note": "[Example 4.22, (S)-(6-((1H-Imidazol-1-yl)methyl)-8-((tetrahydrofuran-3-yl)amino)-3,4-dihydroisoquinolin-2(1H)-yl)(2-(benzyloxy)-4-(difluoromethyl)-6-hydroxyphenyl)methanone]", "IC50": "< 100"}
{"smiles": "CN(C)Cc1cc2c(cn1)CN(C(=O)c1c(O)cc(C#N)cc1OCc1ccccc1)C2", "note": "[Example 27, 3-(Benzyloxy)-4-(6-((dimethylamino)methyl)-2,3-dihydro-1H-pyrrolo[3,4-c]pyridine-2-carbonyl)-5-hydroxybenzonitrile]", "IC50": "1000 to 10000"}
{"smiles": "CC(=O)N1CC[C@@H](Nc2cccc3c2CN(C(=O)c2c(O)cc(C#N)cc2OCc2ccccc2)C3)C1", "note": "[Example 10.5, (R)-4-(4-((1-Acetylpyrrolidin-3-yl)amino)isoindoline-2-carbonyl)-3-(benzyloxy)-5-hydroxybenzonitrile]", "IC50": "100 to 1000"}
{"smiles": "CN1CCN(Cc2ccc3c(c2)CCN(C(=O)c2c(O)cc(C(F)F)cc2OCc2ccccc2)C3)CC1", "note": "[Example 4.47, (2-(Benzyloxy)-4-(difluoromethyl)-6-hydroxyphenyl)(6-((4-methylpiperazin-1-yl)methyl)-3,4-dihydroisoquinolin-2(1H)-yl)methanone]", "IC50": "100 to 1000"}
{"smiles": "COc1cc2c(c(N[C@H]3CCOC3)c1)CN(C(=O)c1c(O)cc(Cl)cc1OCc1ccccc1)C2", "note": "[Example 10.2, (S)-(2-(Benzyloxy)-4-chloro-6-hydroxyphenyl)(6-methoxy-4-((tetrahydrofuran-3-yl)amino)isoindolin-2-yl)methanone]", "IC50": "100 to 1000"}
{"smiles": "CN1CC[C@@H](Nc2cccc3c2CN(C(=O)c2c(O)cc(C(F)F)cc2OCc2ccccc2)CC3)C1=O", "note": "[Example 4.15, (R)-3-((2-(2-(Benzyloxy)-4-(difluoromethyl)-6-hydroxybenzoyl)-1,2,3,4-tetrahydroisoquinolin-8-yl)amino)-1-methylpyrrolidin-2-one]", "IC50": "100 to 1000"}
{"smiles": "O=C(c1c(O)cc(C(F)F)cc1OCc1ccccc1)N1Cc2cccc(N[C@H]3CCOC3)c2C1", "note": "[Example 4, (S)-(2-(Benzyloxy)-4-(difluoromethyl)-6-hydroxyphenyl)(4-((tetrahydrofuran-3-yl)amino)isoindolin-2-yl)methanone]", "IC50": "100 to 1000"}
{"smiles": "CC(=O)N1CCC[C@@H](Nc2cccc3c2CN(C(=O)c2c(O)cc(C#N)cc2OCc2ccccc2)C3)C1", "note": "[Example 10.17, (R)-4-(4-((1-Acetylpiperidin-3-yl)amino)isoindoline-2-carbonyl)-3-(benzyloxy)-5-hydroxybenzonitrile]", "IC50": "1000 to 10000"}
{"smiles": "COc1ccc2c(c1)CCN(C(=O)c1c(O)cc(C(F)F)cc1OCc1ccccc1)C2", "note": "[Example 4.39, (2-(Benzyloxy)-4-(difluoromethyl)-6-hydroxyphenyl)(6-methoxy-3,4-dihydroisoquinolin-2(1H)-yl)methanone]", "IC50": "1000 to 10000"}
{"smiles": "O=C(c1c(O)cc(C(F)F)cc1OCc1ccccc1)N1CCc2c(NC3CCOC3)cccc21", "note": "(stereo not drawn) [Example 27.24, (2-(Benzyloxy)-4-(difluoromethyl)-6-hydroxyphenyl)(4-((tetrahydrofuran-3-yl)amino)indolin-1-yl)methanone]", "IC50": "1000 to 10000"}
{"smiles": "CN(C)CCOc1ccc2c(c1)CCN(C(=O)c1c(O)cc(C#N)cc1OCc1ccccc1)C2", "note": "[Example 10.29, 3-(Benzyloxy)-4-(6-(2-(dimethylamino)ethoxy)-1,2,3,4-tetrahydroisoquinoline-2-carbonyl)-5-hydroxybenzonitrile]", "IC50": "1000 to 10000"}
{"smiles": "N#Cc1cc(O)c(C(=O)N2Cc3ccccc3C2)c(OCc2ccccc2)c1", "note": "[Example 12.4, 3-(Benzyloxy)-5-hydroxy-4-(isoindoline-2-carbonyl)benzonitrile]", "IC50": "1000 to 10000"}
{"smiles": "CN(C)CCOc1ccc2c(c1)CCN(C(=O)c1c(O)cc(F)cc1OCc1ccccc1)C2", "note": "[Example 10.24, (2-(Benzyloxy)-4-fluoro-6-hydroxyphenyl)(6-(2-(dimethylamino)ethoxy)-3,4-dihydroisoquinolin-2(1H)-yl)methanone]", "IC50": "1000 to 10000"}
{"smiles": "N#Cc1cc(O)c(C(=O)N2CCc3cccnc32)c(OCc2ccccc2)c1", "note": "[Example 27.14, 3-(Benzyloxy)-4-(2,3-dihydro-1H-pyrrolo[2,3-b]pyridine-1-carbonyl)-5-hydroxybenzonitrile]", "IC50": "1000 to 10000"}
{"smiles": "O=C(c1c(O)cc(C(F)F)cc1OCc1ccccc1)N1Cc2cnc(N3CCOCC3)cc2C1", "note": "[Example 27.9, (2-(Benzyloxy)-4-(difluoromethyl)-6-hydroxyphenyl)(6-morpholino-1,3-dihydro-2H-pyrrolo[3,4-c]pyridin-2-yl)methanone]", "IC50": "100 to 1000"}
{"smiles": "CN1C[C@H](Nc2cccc3c2CN(C(=O)c2c(O)cc(C#N)cc2OCc2ccccc2)C3)CC1=O", "note": "(single isomer, unassigned) [Example 10.8, (R)-3-(Benzyloxy)-5-hydroxy-4-(4-((1-methyl-5-oxopyrrolidin-3-yl)amino)isoindoline-2-carbonyl)benzonitrile or (S)-3-(benzyloxy)-5-hydroxy-4-(4-((1-methyl-5-oxopyrrolidin-3-yl)amino)isoindoline-2-carbonyl)benzonitrile]", "IC50": "100 to 1000"}
{"smiles": "O=C(c1c(O)cc(C(F)F)cc1OCc1ccccc1)N1Cc2cccc(N[C@@H]3CCOC3)c2C1", "note": "[Example 3, (R)-(2-(Benzyloxy)-4-(difluoromethyl)-6-hydroxyphenyl)(4-((tetrahydrofuran-3-yl)amino)isoindolin-2-yl)methanone]", "IC50": "100 to 1000"}
{"smiles": "N#Cc1cc(O)c(C(=O)N2Cc3cccc(NC4COC4)c3C2)c(OCc2ccccc2)c1", "note": "[Example 10.26, 3-(Benzyloxy)-5-hydroxy-4-(4-(oxetan-3-ylamino)isoindoline-2-carbonyl)benzonitrile]", "IC50": "100 to 1000"}
